# Reference: PMC10721786, “Development of a potent benzonitrile-based inhibitor of glutaminyl-peptide cyclotransferase-like protein (QPCTL) with antitumor efficacy” (Signal Transduction and Targeted Therapy, 2023)
# System: pGlu-CD47
# Experiment: Flow cytometry of pGlu-CD47 (hCD47-CC2C6 binding) in Raji cells
# Assay type: cell-based, human
# Conditions: 100 nM, 48 h
# Description: (§1) Binding to cell surface CD47 was assessed by staining cells with fluorochrome-labeled antibodies clone CC2C6 (BioLegend, Cat. # 323102) and B6H12 (Abcam, Cat. # ab134485) to human CD47 at a dilution of 1:100 in PBS containing 1% FBS (FACS buffer) for 30 min on ice, while protected from light. SIRPα binding to CD47 was assessed by incubating cells with PE labeled recombinant human SIRPα/ CD172α Protein, Fc tag (ACRO Biosystems, Cat. # SIA-HP252) or PE labeled mouse SIRPα Protein, His tag (ACRO Biosystems, Cat. # SIA-MP2H6) for 1 hour on ice, while protected from light.
row,SMILES,inhibitory effect on CD47 pyroglutamation compared to SEN177 and PQ912
1,Cn1cnnc1C1CCN(c2c(C#N)cccc2-c2ccc(F)nc2)CC1 [QP5020],superior inhibitory effects

# System: CD47
# Experiment: Overall cell surface CD47 (hCD47-B6H12 binding) in HEK293T and Raji cells
# Assay type: cell-based, human
# Conditions: 100 nM, 48 h
# Description: as §1
row,SMILES,overall cell surface levels of CD47
1,Cn1cnnc1C1CCN(c2c(C#N)cccc2-c2ccc(F)nc2)CC1 [QP5020],did not alter

# System: CD47/SIRPα
# Experiment: Cell surface binding of human or mouse SIRPα protein to tumor cells (Raji, B16F10), flow cytometry
# Assay type: cell-based
# Conditions: not given
# Description: as §1
row,SMILES,binding of human or mouse SIRPα protein to cell surface
1,Cn1cnnc1C1CCN(c2c(C#N)cccc2-c2ccc(F)nc2)CC1 [QP5020],significantly reduced

# System: pGlu-CD47
# Experiment: hCD47-CC2C6 binding to various cancer cells (H929, HCT116, Huh7, SKOV3, SU-DHL-8, T24, H1299, MCF-7)
# Assay type: cell-based, human
# Conditions: 500 nM, 48 h
# Description: as §1
row,SMILES,CD47 pyroglutamation in various types of cancer cells
1,Cn1cnnc1C1CCN(c2c(C#N)cccc2-c2ccc(F)nc2)CC1 [QP5020],significantly attenuated

# System: pGlu-CD47
# Experiment: Flow cytometry of pGlu-CD47 (hCD47-CC2C6 binding) in HEK293T cells
# Assay type: cell-based, human
# Conditions: 100 nM, 48 h
# Description: as §1
row,SMILES,inhibitory effect on CD47 pyroglutamation compared to SEN177 and PQ912
1,Cn1cnnc1C1CCN(c2c(C#N)cccc2-c2ccc(F)nc2)CC1 [QP5020],superior inhibitory effects

# Same assay, conditions: Homo sapiens, HEK-293T, treatment 48 h, read-out: IC50, dose-dependent inhibition of pGlu-CD47
row,SMILES,IC50 [nM]
1,"CCCOc1ccc([C@H]2CNC(=O)N2c2ccc3[nH]cnc3c2)cc1 [PQ912, reference compound]",988 ± 409
2,Cn1cnnc1C1CCN(c2c(C#N)cccc2-c2ccc(F)nc2)CC1 [QP5020],6.4 ± 0.7

# Target: T1, QPCTL (Homo sapiens, UniProt Q9NXS2)
# T1 construct: made in house; host or cells: Escherichia coli BL21 (DE3)
# Experiment: Enzyme activity assay (fluorescent, H-Gln-AMC / PGPEP I coupled) against QPCTL
# Assay type: biochemical
# Conditions: mean ± SD of three independent experiments
# Description: The DNA with sequence coding for the human glutaminyl-peptide cyclotransferase-like protein (nucleotide entry: NP_060129) was synthesized and then inserted into the pGEX-4T-2 vector. The vector was transformed into Escherichia coli BL21 (DE3) competent cells (Tiangen Biotech, Cat. # CB105). The bacteria were grown in LB media containing ampicillin (100 μg/ mL) at 37 °C until the cell density reached an OD600 of 0.8- 0.9. The cultures were induced with 1 mM IPTG for 8- 10 h at 20 °C. The bacteria were collected and resuspended in 50 mL PBS, and 1% Triton X-100 (v/v), 1% β-mercaptoethanol (v/v), PMSF (final concentration 1 mM) were added into the mixed solution. The bacterial cells were then harvested by centrifugation (4,700 g for 30 min at 4 °C) followed by ultrasonic breaking. The resulted solution was clarified by centrifugation at 13,800 g for 30 min. GST-beads was suspended to the supernatant and was gently shook for 1 hour to bind the protein. The resulted protein solution was centrifuged at 1,500 g for 5 min and the supernatant was discarded. At least 10-fold the volume of PBS was added to the pellet to sufficiently suspend the beads in the solution. Then the solution was clarified by centrifugation at 1,500 g for 5 min and the supernatant was discarded. The above steps were repeated twice. 1 mL GST elution buffer was added to the pellet and the solution was shaken gently for 30 min following by centrifugation at 1,500 g for 5 min. The supernatant was collected and was eluted with GST elution buffer at least twice. The supernatant was loaded onto SDS-PAGE electrophoresis to detect protein purity. The protein was stored in 20% glycerol at -80 °C.
# Enzyme activity was measured by conversion of glutamine-4-amino-7-methylcounarine (H-Gln-AMC) to pyroglutamyl-AMC, which is subsequently a specific substrate for PGPEP I, releasing free AMC which can be fluorescently detected. For typical inhibition assay, 12.5 μL QPCTL protein (7 ng/μL) or QPCT protein (7 ng/μL) (MedChemExpress, Cat. #HY-P76560) and 2.5 μL of tested compounds with different concentrations were pipetted into a 384-well plate on ice. The reaction system was reacted in a shaker at 37 °C, 100 rpm for 10 minutes. Next, 10 μL fluorescent substrate H-Gln-AMC (500 μM) was added and incubated in 100 rpm for 20 min at 37 °C. […] Once done, the plate was moved over to TECAN Infinite 200PRO plate-reader to monitor and record the maximum fluorescence at 380nm excitation/ 460nm emission. The fluorescent signal value obtained was analyzed by Graphpad Prism 8.0 to obtain the inhibitory rate and IC50 of the compound.
# T1 sequence (Q9NXS2 whole entry): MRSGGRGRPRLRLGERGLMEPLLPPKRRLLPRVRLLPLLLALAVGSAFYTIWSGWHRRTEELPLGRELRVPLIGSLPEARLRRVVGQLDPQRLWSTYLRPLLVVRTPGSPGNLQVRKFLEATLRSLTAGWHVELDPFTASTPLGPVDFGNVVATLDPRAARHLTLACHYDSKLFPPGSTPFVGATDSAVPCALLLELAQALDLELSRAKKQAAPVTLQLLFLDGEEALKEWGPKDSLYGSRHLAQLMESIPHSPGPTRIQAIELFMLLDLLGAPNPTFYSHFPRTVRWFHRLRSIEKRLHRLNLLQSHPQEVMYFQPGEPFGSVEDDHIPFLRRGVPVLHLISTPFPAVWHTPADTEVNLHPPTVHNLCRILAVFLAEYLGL
row,SMILES,IC50 [nM]
1,Cn1cnnc1C1CCN(c2c(C#N)cccc2-c2ccc(C#N)nc2)CC1 [Compound 11],417 ± 210
2,Cn1cnnc1C1CCN(c2c(C#N)cccc2-c2ccc(=O)n(C)c2)CC1 [Compound 21],573 ± 85.5
3,Cn1cnnc1C1CCN(c2c(C#N)cccc2-c2cncc(F)c2)CC1 [Compound 14],73.6 ± 11.5
4,Cn1cnnc1C1CCN(c2c(C#N)cccc2-c2cnccc2C(F)(F)F)CC1 [Compound 17],53.5 ± 11.8
5,Cn1cnnc1C1CCN(c2ccccc2C#N)CC1 [Compound 8],> 1000
6,Cn1cnnc1C1CCN(c2c(C#N)cccc2-c2ccncc2)CC1 [Compound 7],> 1000
7,COc1ccncc1-c1cccc(C#N)c1N1CCC(c2nncn2C)CC1 [Compound 16],> 1000
8,Cc1nnc(C2CCN(c3c(C#N)cccc3-c3ccc(F)nc3)CC2)n1C [Compound 26],94.3 ± 13.9
9,Cn1cnnc1C1CCN(c2c(C#N)cccc2-c2cnccc2Cl)CC1 [Compound 19],105 ± 22.3
10,Cn1cnnc1C1CCN(c2c(C#N)cccc2-c2ccc(C(F)(F)F)nc2)CC1 [Compound 10],> 1000
11,Cn1cnnc1C1CCN(c2c(C#N)cccc2-c2cncnc2)CC1 [Compound 9],76.5 ± 21.3
12,CC(C)n1cnnc1C1CCN(c2c(C#N)cccc2-c2ccc(F)nc2)CC1 [Compound 27],> 1000
13,"CCCOc1ccc([C@H]2CNC(=O)N2c2ccc3[nH]cnc3c2)cc1 [PQ912, reference compound]",51.8 ± 6.2
14,Cn1cnnc1C1CCN(c2c(C#N)cccc2-c2cccnc2)CC1 [Compound 5],56.5 ± 11.3
15,Cn1cnnc1C1CCN(c2c(C#N)cccc2-c2ccoc2)CC1 [Compound 24],135 ± 64.3
16,Cn1cnnc1C1CCN(c2c(C#N)cccc2-c2cc[nH]c(=O)c2)CC1 [Compound 22],17.6 ± 6.2
17,COc1ccc(-c2cccc(C#N)c2N2CCC(c3nncn3C)CC2)cn1 [Compound 13],368 ± 82
18,Cn1cnnc1C1CCN(c2c(C#N)cccc2-c2ccc(O)nc2)CC1 [Compound 20],187 ± 20.8
19,Cn1cnnc1C1CCN(c2c(C#N)cccc2-c2cncc(C#N)c2)CC1 [Compound 15],124 ± 9.8
20,Cc1ccncc1-c1cccc(C#N)c1N1CCC(c2nncn2C)CC1 [Compound 18],74.5 ± 13.4
21,Cc1noc(C)c1-c1cccc(C#N)c1N1CCC(c2nncn2C)CC1 [Compound 25],> 1000
22,Cn1cnnc1C1CCN(c2c(C#N)cccc2-c2ccc(N)nc2)CC1 [Compound 12],471 ± 244
23,Cn1cnnc1C1CCN(c2c(C#N)cccc2-c2ccccc2)CC1 [Compound 6],> 1000
24,N#Cc1cccc(-c2ccc(F)nc2)c1N1CCC(c2cnc[nH]2)CC1 [Compound 29],> 1000
25,Cn1cnnc1C1CCN(c2c(C#N)cccc2-c2ccn(C)c(=O)c2)CC1 [Compound 23],19.6 ± 12.5
